Experimental data reported in patent US20230407245A1, “Media and methods for establishing and maintaining early embryo-like cells” (BGI SHENZHEN GROUP HOLDINGS CO., LIMITED, priority 2020, published 2023).

System: primed human PSCs
Experiment: Conversion of primed human PSCs to ICLCs, RT-qPCR of preimplantation ICM markers
Assay type: cell-based
Settings: for expression of preimplantation ICM markers (RT-qPCR) in ICLCs with a different dosage of one component, compared to primed human PSCs: H9, 4CL medium 1 with PD0325901 0.5 μM, TSA 20 nM, DZNep 5, 20 or 50 nM
Description: All provided human PSCs were routinely maintained on Matrigel™ or Geltrex™ coated plates in mTeSR1 or E8 medium. Generally, cells were passaged every 4 to 5 days with 0.5 mM EDTA. For passaging, cells were washed with PBS once and treated with 0.5 mM EDTA for 5 mins. Then, EDTA was removed and cells were detached as small clumps using a Pasteur pipette with mTeSR1 or E8 medium. Primed human PSCs were grown in an incubator under normoxic conditions (37° C., 5% CO2).
One day before initiation of conversion, primed human PSCs were washed with PBS once and dissociated into single cells and plated at a density of 1,000 to 1,500 cells/cm 2 on feeder in mTeSR1 or E8 medium supplemented with 10 μM Y27632. Twenty-four hours later, culture medium was switched to 4CL medium 1. The culture medium was refreshed with the same medium every 24 hours. Colonies became round and domed-shape in 24 to 48 hours. Cells were passaged every 3 to 4 days. For passaging, cells were dissociated into single cells using TrypLE: 0.5 mM EDTA (1:1) and plated at a density of 1,000 to 1,500 cells/cm 2 on feeder (feeders were seeded on Geltrex™/Matrigel™ pre-treated plate) (FIG. 1). The ICLCs induction and maintenance can be conducted under hypoxic condition (37° C., 5% CO2, 5% O2), or normoxic condition (37° C., 5% CO2, 21% O2) (FIG. 34), preferably hypoxia condition.
Using the same procedures of example 1, except plating cells on 1% (v/v) Geltrex™ in DMEM-F12 (cat #) coated plates instead of on feeder cells.
Primed human PSCs were cultured following the same procedures of example 1. One day before initiation of the conversion, primed human PSCs were dissociated into single cells and plated 60,000 cells/well in Aggrewell™ 800 plates using mTeSR1 or E8 medium supplemented with 10 μM Y27632. Twenty-four hours later, culture medium was changed into 4CL medium 1, culture condition was then switched to hypoxic condition. Cells formed small spheres in 3 days. The spheres were then lifted and transferred to flasks (Greiner Bio-One, 658190) for suspension culture. Medium was refreshed daily. Cells were passaged every 4 to 5 days. For passaging, cells were dissociated into single cells using TrypLE: 0.5 mM EDTA (1:1), then cells were resuspended in 4CL medium 1 at a density of 150,000 cells/ml. The resuspended cells were added into flasks (Greiner Bio-One, 658190) for suspension culture. Cells formed small aggregates in 24 hours. Generally, cells were converted to ICLCs in approximately 3 weeks after initiation.
Same as example 1, but different dosages of either PD0325901, DZNep, or TSA were also used: PD0325901, 0.5 μM; TSA, 20 nM; DZNep, 5 nM, 20 nM or 50 nM.

| Compound | expression of preimplantation ICM markers (RT-qPCR) in ICLCs with a different dosage of one component, compared to primed human PSCs | expression levels of ICM specific genes such as DNMT3L, STELLA, DPPA5, KLF17 (final concentration of 40 to 70 ng/mL) |
| --- | --- | --- |
| Nc1nccc2c1ncn2[C@@H]1C=C(CO)[C@@H](O)[C@H]1O [DZNep, 3-deazaneplanocin A] | significantly induced | – |
| CC(/C=C/C(=O)NO)=C\[C@@H](C)C(=O)c1ccc(N(C)C)cc1 [TSA, trichostatin A] | significantly induced | – |
| O=C(NOC[C@H](O)CO)c1ccc(F)c(F)c1Nc1ccc(I)cc1F [PD0325901] | significantly induced | – |
| O=C1O[C@H]([C@@H](O)CO)C(O)=C1O [L-ascorbic acid] | – | potently increases |
